US20090055964A1, “MPO1 GENE AND PROTEIN AND METHODS OF USE” (priority 2006, published 2009)

Experiments:
[1] = target: T1, recombinant TRX-NtMPO1 fusion protein (Nicotiana tabacum, UniProt A0A1S4BDC4); assay: spectrophotometric amine oxidase assay of recombinant TRX-NtMPO1 with diamine substrates; details: for Vmax: substrate kinetics, Lineweaver-Burk plots, three independent extracts
T1 sequence (A0A1S4BDC4 1-790): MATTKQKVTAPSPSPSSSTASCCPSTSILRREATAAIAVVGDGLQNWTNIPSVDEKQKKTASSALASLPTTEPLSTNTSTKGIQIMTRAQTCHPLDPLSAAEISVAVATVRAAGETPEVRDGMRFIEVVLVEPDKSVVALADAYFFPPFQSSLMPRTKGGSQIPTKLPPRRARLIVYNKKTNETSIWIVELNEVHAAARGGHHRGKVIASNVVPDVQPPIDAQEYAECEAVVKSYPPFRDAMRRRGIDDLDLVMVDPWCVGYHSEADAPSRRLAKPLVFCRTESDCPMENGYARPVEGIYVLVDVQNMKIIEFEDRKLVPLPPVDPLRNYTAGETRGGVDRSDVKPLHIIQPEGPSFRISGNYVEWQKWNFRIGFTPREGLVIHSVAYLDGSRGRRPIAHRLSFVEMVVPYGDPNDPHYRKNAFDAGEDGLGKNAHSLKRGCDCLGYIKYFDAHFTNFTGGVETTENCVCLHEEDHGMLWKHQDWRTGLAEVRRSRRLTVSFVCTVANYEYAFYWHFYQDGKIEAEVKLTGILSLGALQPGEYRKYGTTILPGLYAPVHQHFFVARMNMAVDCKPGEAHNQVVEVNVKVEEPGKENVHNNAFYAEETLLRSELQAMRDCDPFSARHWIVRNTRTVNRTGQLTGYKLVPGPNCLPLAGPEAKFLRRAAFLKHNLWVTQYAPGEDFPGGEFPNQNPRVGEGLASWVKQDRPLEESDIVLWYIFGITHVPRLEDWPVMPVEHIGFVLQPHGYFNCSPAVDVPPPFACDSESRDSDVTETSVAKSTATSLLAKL
Description: This modified fragment was cloned into pCR2.1 (Invitrogen) to yield pJGJ367. […] Finally, a 2.6 Kb NcoI-XhoI (partial) fragment was cut from pJGJ369 and ligated into pET32a+ similarly cut, to yield pJGJ389. Plasmid pJGJ389 was transformed into the Rosetta E. coli strain (Novagen, Madison, Wis.) for expression of a recombinant […] protein. Mid-log phase Rosetta/pJGJ389 cells were cultured overnight in LB media supplemented with 100 ug/ml Ampicillin, 30 ug/ml Chloramphenicol, and 0.2 mM isopropyl-β-D-thiogalactoside at 18° C. at 250 rpm. The cells were pelleted, lysed, and the native protein extract incubated with Ni-NTA superflow resin, and the TRX-MPO1 was eluted as per manufacture's instructions (Qiagen, Valencia, Calif.). The TRX-MPO1 enriched extract was mixed 1:1 (v:v) with 100% glycerol and stored at −20° C.

NCCCN = assay: purified protein, by the assay type; details: other: substrate kinetics, Lineweaver-Burk plots, three independent extracts; 18.0 °C
Description: Mid-log phase Rosetta/pJGJ389 cells were cultured overnight in LB media supplemented with 100 ug/ml Ampicillin, 30 ug/ml Chloramphenicol, and 0.2 mM isopropyl-β-D-thiogalactoside at 18° C. at 250 rpm. The cells were pelleted, lysed, and the native protein extract incubated with Ni-NTA superflow resin, and the TRX-MPO1 was eluted as per manufacture's instructions (Qiagen, Valencia, Calif.). The TRX-MPO1 enriched extract was mixed 1:1 (v:v) with 100% glycerol and stored at −20° C. […] Background-corrected diamine oxidase rates were graphed as Lineweaver-Burk plots in order to estimate the Vmax and Km of the recombinant TRX -NtMPO1 fusion protein isolated from three independent extracts.

Which Vmax [1] does the source give for `CNCCCCN` [N-methylputrescine, N-methyl-1,4 diaminebutane] here?
Its Vmax is 0.0017 ± 0.0001 mM/min.

How did the Vmax [1] turn out when `NCCCCN` [putrescine] was run?
Its Vmax is 0.0007 ± 0.0001 mM/min.

For `NCCCCCN` [cadaverine], which Vmax [1] is on record?
Its Vmax is 0.0003 ± 0.00004 mM/min.

Which “oxidative deamination as substrate by recombinant TRX-MPO1” value ([1]; qualitative, different kinetics for each substrate) does the source give for `NCCCN` [1,3-diamine propane, 1,3-diaminepropane] here?
The value was “oxidatively deaminated”.

Which Km (NCCCN) does the source give for “recombinant TRX-NtMPO1 fusion protein (Nicotiana tabacum)” here?
The Km was 0.35 ± 0.03 mM.

And the Vmax (NCCCN)?
Its Vmax is 0.7 µM/min.

What about the Vmax/Km (NCCCN) of the same compound?
Its Vmax/Km is 0.00193 min⁻¹.
